Test results taken from patent US20200208128A1, “METHODS OF TREATING LIVER DISEASES” (CAMP4 THERAPEUTICS CORPORATION, priority 2017, published 2020).
“Also recorded” adds a separate entry of the source.

Tests used:
[1] = system: COL1A1; assay: qRT-PCR of COL1A1 mRNA in hepatic stellate cells; type: cell-based, human; settings: for Relative COLIA1 mRNA levels RQ: four technical replicates; for Effect on COL1A1 expression in stellate cells: serial dilutions; for Relative COL1A1 mRNA levels RQ: fold change vs DMSO
Description: (§1) Human Primary Stellate cells (HSC) (ScienceCell Cat #5300) were originally isolated from the liver of a donor. Cells were plated in Stellate Cell Medium (SteCM) (ScienCell Cat #5301) on black clear bottom plates (GREINER BIO-ONE:82050-730) coated with 2 μg/cm^2 PolyLLysine (PLL) (ScienceCell Cat #0413). Cells were plated at a density of 17000 cells/well in a 96-well plate and allowed to adhere overnight. The following day cell culture media was replenished with the indicated concentration(s) of compound for 18 hours. […] Medium was removed after 18 hours and cells were processed for further analysis, e.g. qRT-PCR.
(§2) In some examples, RQ Min and RQ Max values are also reported. RQ Min and RQ Max are the minimum and maximum relative levels of gene expression in the test samples, respectively. They were calculated using the confidence level set in the analysis settings and the confidence level was set to one standard deviation (SD). These values were calculated using standard deviation as follows: […].
Candidate compounds were tested in stellate cells for their ability to modulate PNPLA3 and COL1A1. […] Changes in PNPLA3 (or COL1A1) mRNA levels in stellate cells were analyzed with qRT-PCR. Once compounds capable of downregulating PNPLA3 and/or COL1A1 were identified, additional compounds that are known to act in the same pathways were also tested. Transforming growth factor beta (TGF-beta) is known to induce fibrotic genes including COL1A1 in vitro, and was thus chosen as a positive control (i.e., positively regulate COL1A1 expression).

[2] = system: PNPLA3; assay: qRT-PCR of PNPLA3 mRNA in hepatic stellate cells; type: cell-based, human; settings: for Effect on PNPLA3 mRNA levels in stellate cells: serial dilutions; for Relative PNPLA3 mRNA levels RQ: fold change vs DMSO
Description: as §1, §2
Candidate compounds were tested in stellate cells for their ability to modulate PNPLA3 and COL1A1. Stellate cells were treated with serial dilutions of the compounds, ranging from 0.1 μM to 100 μM. Changes in PNPLA3 (or COL1A1) mRNA levels in stellate cells were analyzed with qRT-PCR. Once compounds capable of downregulating PNPLA3 and/or COL1A1 were identified, additional compounds that are known to act in the same pathways were also tested. Transforming growth factor beta (TGF-beta) is known to induce fibrotic genes including COL1A1 in vitro, and was thus chosen as a positive control (i.e., positively regulate COL1A1 expression).

[3] = system: PNPLA3; assay: qRT-PCR of PNPLA3 expression in mouse hepatocytes; type: cell-based
Description: Analysis of the fold changes in expression as measured by qRT-PCR were performed using the technique below. The control was DMSO, and the treatment was the selected compound (CPD). The internal control was GAPDH or B-Actin (or otherwise indicated), and the gene of interest is the target. First, the averages of the 4 conditions were calculated for normalization: DMSO:GAPDH, DMSO:Target, CPD: GAPDH, and CPD:Target. Next, the ΔCT of both control and treatment were calculated to normalize to internal control (GAPDH) using (DMSO:Target)−(DMSO:GAPDH)=ΔCT control and (CPD:Target)−(CPD: GAPDH)=ΔCT experimental. Then, the ΔΔCT was calculated by ΔCT experimental−ΔCT control.
Compounds were tested at concentrations ranging from 0.01 μM to 50 μM. […] PNPLA3 levels were normalized to the level of a house keeping gene ACTB.

[4] = In vivo compound testing in mice: body weight, organ weight, other liver genes; design: species or system mouse; settings: 50 mg/kg once daily, four days
Description: (§3) A group of 6 mice (C57BL/6J strain), 3 male and 3 female, were administered with a candidate compound once daily via oral gavage for four consecutive days. Mice were sacrificed 4 hours post-last dose on the fourth day. Organs including liver, spleen, kidney, adipose, plasma were collected. Mouse liver tissues were pulverized in liquid nitrogen and aliquoted into small microtubes. TRIzol (Invitrogen Cat #15596026) was added to the tubes to facilitate cell lysis from tissue samples. The TRIzol solution containing the disrupted tissue was then centrifuged and the supernatant phase was collected. Total RNA was extracted from the supernatant using Qiagen RNA Extraction Kit (Qiagen Cat #74182) and the target mRNA levels were analyzed using qRT-PCR.
(§4) Candidate compounds were administered at an appropriate dose once daily to a group of wild-type mice consisting of 3 male and 3 female mice. Mice were sacrificed on the fourth day and liver tissue was collected and analyzed for PNPLA3 (or COL1A1) expression by qRT-PCR. […] When COL1A1 was analyzed, a stellate cell specific gene GFAP was used as a house-keeping control.

[5] = system: PNPLA3; assay: In vivo compound testing in mice: PNPLA3 expression in liver (qRT-PCR); design: species or system mouse; settings: wild-type mice, 50 mg/kg once daily oral gavage, four days
Description: as §3, §4

[6] = system: PNPLA3 (I148M mutation), HepG2 cells; assay: qRT-PCR of mutant PNPLA3 expression in HepG2 cells; type: cell-based
Description: HepG2 cells were plated in 24 well format at 100,000 cells per well in 500 μl DMEM. […] The following morning, the cells were harvested for RNA extraction.
Candidate compounds were evaluated in a PNPLA3 mutant cell line HepG2 to test their effects on mutant PNPLA3 expression. The HepG2 cells have the I148M mutation in PNPLA3. Changes in PNPLA3 expression in HepG2 cells were analyzed with qRT-PCR. PNPLA3 mRNA levels were normalized to the geometric mean of two internal controls, GUSB and B2M.

[7] = system: PNPLA3; assay: qRT-PCR validation of PNPLA3 expression in primary human hepatocytes; type: cell-based
Description: Cryopreserved hepatocytes were cultured in plating media for 16 hours, transferred to maintenance media for 4 hours. Cultured on serum-free media for 2 hours, then a compound was added. The hepatocytes were maintained on the serum-free media for 16 hours prior to gene expression analysis. Primary Human Hepatocytes were stored in the vapor phase of a liquid nitrogen freezer (about −130° C.).
(§5) Human hepatocytes cultured as described above were plated in 24-well format, adding 375,000 cells per well in a volume of 500 ul plating medium. Four hours before treatment, cells were washed with PBS and the medium was changed to either: fresh maintenance medium (complete) or modified maintenance medium.
Compound stocks were prepared at 1000× final concentration and added in a 2-step dilution to the medium to reduce risk of a compound precipitating out of solution when added to the cells, and to ensure reasonable pipetting volumes. One at a time, each compound was first diluted 10-fold in warm (about 37° C.) modified maintenance medium (initial dilution=ID), mixed by vortexing, and the ID was diluted 100-fold into the cell culture (e.g. 5.1 μl into 1 well of a 24-well plate containing 0.5 mL medium). The plate was mixed by carefully swirling and after all wells were treated and returned to the incubator overnight. If desired, separate plates/wells were treated with vehicle-only controls and/or positive controls. If using multi-well plates, controls were included on each plate.
Samples were amplified using the following Taqman probes from ThermoFisher for each target: Hs01552217_m1 (human PNPLA3).
Analysis of the fold changes in expression as measured by qRT-PCR were performed using the technique below. The control was DMSO, and the treatment was the selected compound (CPD). The internal control was GAPDH or B-Actin (or otherwise indicated), and the gene of interest is the target. First, the averages of the 4 conditions were calculated for normalization: DMSO:GAPDH, DMSO:Target, CPD: GAPDH, and CPD:Target. Next, the ΔCT of both control and treatment were calculated to normalize to internal control (GAPDH) using (DMSO:Target)−(DMSO:GAPDH)=ΔCT control and (CPD:Target)−(CPD: GAPDH)=ΔCT experimental. Then, the ΔΔCT was calculated by ΔCT experimental−ΔCT control. The Expression Fold Change (or Relative Quantification, abbreviated as RQ) was calculated by 2−(ΔΔCT) (2-fold expression change was shown by RNA-Seq results provided herein).
Candidate compounds were subjected to validation with qRT-PCR in human hepatocytes. qRT-PCR was performed on samples of primary human hepatocytes from a second donor treated with the candidate compounds. Compounds were tested at concentrations ranging from 0.01 μM to 50 μM, with the majority tested at 10 μM.

[8] = system: JNK; settings: cited from earlier work
[9] = system: PNPLA3; assay: RNA-seq of compound-treated primary human hepatocytes: PNPLA3 expression; type: cell-based
Description: (§6) Cryopreserved hepatocytes were cultured in plating media for 16 hours, transferred to maintenance media for 4 hours. Cultured on serum-free media for 2 hours, then a compound was added. The hepatocytes were maintained on the serum-free media for 16 hours prior to gene expression analysis.
as §5
Compound stocks were prepared at 1000× final concentration and added in a 2-step dilution to the medium to reduce risk of a compound precipitating out of solution when added to the cells, and to ensure reasonable pipetting volumes. One at a time, each compound was first diluted 10-fold in warm (about 37° C.) modified maintenance medium (initial dilution=ID), mixed by vortexing, and the ID was diluted 100-fold into the cell culture (e.g. 5.1 μl into 1 well of a 24-well plate containing 0.5 mL medium). The plate was mixed by carefully swirling and after all wells were treated and returned to the incubator overnight. If desired, separate plates/wells were treated with vehicle-only controls and/or positive controls. If using multi-well plates, controls were included on each plate. After about 18 hours, cells were harvested for further analysis, e.g., ChIP-seq, RNA-seq, ATAC-seq, etc.
The expression level of each gene was quantified with normalized FPKM (fragments per kilobase of exon per million mapped fragments). The differentially expressed genes were called using Cuffdiff v2.2.1 with q value <0.01 and log 2fold change >=1 or <=−1.
RNA-seq was performed to determine the effects of the compounds on PNPLA3 expression in hepatocytes. Fold change was calculated by dividing the level of expression in the cell system that had been perturbed by the level of expression in an unperturbed system. Changes in expression having a p-value ≤0.05 were considered significant.

[10] = target: Platelet-derived growth factor receptor alpha (PDGFRα) (Homo sapiens, UniProt P16234); settings: cited from earlier work
Platelet-derived growth factor receptor alpha (PDGFRα), sequence (P16234 593-954 limits assumed): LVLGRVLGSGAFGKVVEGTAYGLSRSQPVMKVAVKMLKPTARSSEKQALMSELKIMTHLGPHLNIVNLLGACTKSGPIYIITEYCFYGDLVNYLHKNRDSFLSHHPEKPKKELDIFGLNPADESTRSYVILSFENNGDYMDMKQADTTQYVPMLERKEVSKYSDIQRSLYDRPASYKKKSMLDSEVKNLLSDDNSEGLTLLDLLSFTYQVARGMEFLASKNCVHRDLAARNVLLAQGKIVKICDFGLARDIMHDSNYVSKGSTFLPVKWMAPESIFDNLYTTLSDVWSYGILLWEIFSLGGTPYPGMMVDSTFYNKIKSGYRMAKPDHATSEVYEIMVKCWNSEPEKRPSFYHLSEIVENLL

[11] = target: stem cell growth factor receptor (SCFR or c-Kit) (Homo sapiens, UniProt P10721); settings: cited from earlier work
stem cell growth factor receptor (SCFR or c-Kit), sequence (P10721 whole entry D816H, form open): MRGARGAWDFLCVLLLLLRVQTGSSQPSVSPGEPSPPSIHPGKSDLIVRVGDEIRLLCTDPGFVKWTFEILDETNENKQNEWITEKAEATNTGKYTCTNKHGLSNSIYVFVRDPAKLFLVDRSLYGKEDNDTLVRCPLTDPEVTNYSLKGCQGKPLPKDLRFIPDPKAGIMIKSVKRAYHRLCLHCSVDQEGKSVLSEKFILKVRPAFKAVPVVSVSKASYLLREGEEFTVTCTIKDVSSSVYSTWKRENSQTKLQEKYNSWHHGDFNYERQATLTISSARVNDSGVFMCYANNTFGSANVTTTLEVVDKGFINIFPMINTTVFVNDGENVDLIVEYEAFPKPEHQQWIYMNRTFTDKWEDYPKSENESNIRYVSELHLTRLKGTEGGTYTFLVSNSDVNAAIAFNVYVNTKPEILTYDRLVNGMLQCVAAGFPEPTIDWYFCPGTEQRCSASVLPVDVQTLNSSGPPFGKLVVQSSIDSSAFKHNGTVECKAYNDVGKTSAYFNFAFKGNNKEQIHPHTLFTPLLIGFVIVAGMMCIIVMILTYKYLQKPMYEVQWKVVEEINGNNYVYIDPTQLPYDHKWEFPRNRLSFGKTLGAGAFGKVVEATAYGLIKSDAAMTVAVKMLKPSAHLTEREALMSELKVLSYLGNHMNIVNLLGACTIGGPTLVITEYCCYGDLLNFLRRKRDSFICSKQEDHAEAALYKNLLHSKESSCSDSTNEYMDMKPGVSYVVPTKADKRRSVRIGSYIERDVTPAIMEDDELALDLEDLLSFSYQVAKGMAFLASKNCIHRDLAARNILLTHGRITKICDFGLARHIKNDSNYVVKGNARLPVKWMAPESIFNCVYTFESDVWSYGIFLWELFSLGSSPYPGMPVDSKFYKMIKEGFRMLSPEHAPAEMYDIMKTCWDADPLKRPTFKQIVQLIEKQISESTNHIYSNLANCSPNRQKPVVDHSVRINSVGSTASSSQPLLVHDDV

[12] = target: T1, FLT3 (Homo sapiens, UniProt P36888); settings: cited from earlier work
T1 construct: IC50; other: FLT3
T1 sequence (P36888 1-993 D835Y): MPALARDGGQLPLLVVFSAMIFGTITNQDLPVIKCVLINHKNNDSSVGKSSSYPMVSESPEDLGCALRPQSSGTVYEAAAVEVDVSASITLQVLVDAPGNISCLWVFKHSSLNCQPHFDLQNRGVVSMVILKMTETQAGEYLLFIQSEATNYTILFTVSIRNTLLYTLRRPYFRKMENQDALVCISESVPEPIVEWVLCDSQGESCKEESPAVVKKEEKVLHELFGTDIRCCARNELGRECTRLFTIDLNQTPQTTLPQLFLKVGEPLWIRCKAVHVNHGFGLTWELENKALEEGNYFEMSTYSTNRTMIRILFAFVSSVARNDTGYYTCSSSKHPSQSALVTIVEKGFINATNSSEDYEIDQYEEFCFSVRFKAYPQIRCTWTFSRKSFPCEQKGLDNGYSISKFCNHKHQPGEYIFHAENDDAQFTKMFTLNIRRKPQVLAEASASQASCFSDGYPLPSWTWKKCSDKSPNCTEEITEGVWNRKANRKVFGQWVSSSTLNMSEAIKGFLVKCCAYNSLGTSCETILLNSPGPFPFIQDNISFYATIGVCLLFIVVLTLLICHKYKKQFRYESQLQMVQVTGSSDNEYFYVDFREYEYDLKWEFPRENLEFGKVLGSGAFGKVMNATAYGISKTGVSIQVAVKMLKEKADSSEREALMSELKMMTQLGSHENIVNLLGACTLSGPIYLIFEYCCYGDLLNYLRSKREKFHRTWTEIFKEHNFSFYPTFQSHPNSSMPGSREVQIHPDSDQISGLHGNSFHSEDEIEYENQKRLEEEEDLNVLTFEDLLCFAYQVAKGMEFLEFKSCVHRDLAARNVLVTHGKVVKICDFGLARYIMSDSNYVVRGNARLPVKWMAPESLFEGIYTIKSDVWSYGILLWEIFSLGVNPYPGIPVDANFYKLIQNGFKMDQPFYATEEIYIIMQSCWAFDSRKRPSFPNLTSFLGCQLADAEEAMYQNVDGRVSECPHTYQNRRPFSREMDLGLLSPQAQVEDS

[13] = system: PNPLA5; assay: RNA-seq of compound-treated primary human hepatocytes: PNPLA5 expression; type: cell-based
Description: as §6, §5
Compound stocks were prepared at 1000× final concentration and added in a 2-step dilution to the medium to reduce risk of a compound precipitating out of solution when added to the cells, and to ensure reasonable pipetting volumes. One at a time, each compound was first diluted 10-fold in warm (about 37° C.) modified maintenance medium (initial dilution=ID), mixed by vortexing, and the ID was diluted 100-fold into the cell culture (e.g. 5.1 μl into 1 well of a 24-well plate containing 0.5 mL medium). […]
The expression level of each gene was quantified with normalized FPKM (fragments per kilobase of exon per million mapped fragments). […]
Fold change was calculated by dividing the level of expression in the cell system that had been perturbed by the level of expression in an unperturbed system. […]

[14] = system: COL1A1; assay: In vivo compound testing in mice: COL1A1 expression in liver (qRT-PCR); design: species or system mouse; settings: wild-type mice, 50 mg/kg once daily oral gavage, four days, GFAP as house-keeping control
Description: as §3, §4

O=C1Nc2cc(Br)ccc2/C1=C1/Nc2ccccc2/C1=N\O [BIO]
Relative COLIA1 mRNA levels RQ ([1]; 1 μM): 0.74 | Relative COLIA1 mRNA levels RQ ([1]; 10 μM): 0.59 | Effect on COL1A1 expression in stellate cells [1]: modestly decreased both PNPLA3 and COL1A1 in a dose dependent manner | Effect on PNPLA3 mRNA levels in stellate cells [2]: modestly decreased both PNPLA3 and COL1A1 in a dose dependent manner

CCC(=O)N1CCN(c2ccc(-n3c(=O)ccc4cnc5ccc(-c6cnc7ccccc7c6)cc5c43)cc2C(F)(F)F)CC1 [Torin 1]
Relative COL1A1 mRNA levels RQ ([1]; compound 0.01 μM): 0.29 | Relative COL1A1 mRNA levels RQ ([1]; compound 0.1 μM): 0.41 | Relative COL1A1 mRNA levels RQ ([1]; compound 1 μM): 0.43 | Relative COL1A1 mRNA levels RQ ([1]; compound 10 μM): 0.36 | Relative PNPLA3 mRNA levels ([3]; 10 μM): 0.53 ± 0.25 | Relative PNPLA3 mRNA levels RQ ([2]; compound 0.01 μM): 0.34 | Relative PNPLA3 mRNA levels RQ ([2]; compound 0.1 μM): 0.65 | Relative PNPLA3 mRNA levels RQ ([2]; compound 1 μM): 0.99 | Relative PNPLA3 mRNA levels RQ ([2]; compound 10 μM): 2.39

COc1ccc(-c2cc3c(C)nc(N)nc3n([C@H]3CC[C@H](OCCO)CC3)c2=O)cn1 [PF-04691502]
Relative PNPLA3 mRNA levels ([3]; 1 μM): 0.21 ± 0.10

CN1CCN(S(=O)(=O)c2ccc(-c3cnc(N)c(C(=O)Nc4cccnc4)n3)cc2)CC1 [AZD2858]
Relative COLIA1 mRNA levels RQ ([1]; 1 μM): 0.83 | Relative COLIA1 mRNA levels RQ ([1]; 10 μM): 0.72 | Effect on COL1A1 expression in stellate cells [1]: modestly decreased both PNPLA3 and COL1A1 in a dose dependent manner | Effect on PNPLA3 mRNA levels in stellate cells [2]: modestly decreased both PNPLA3 and COL1A1 in a dose dependent manner

N#CCNC(=O)c1ccc(-c2ccnc(Nc3ccc(N4CCOCC4)cc3)n2)cc1 [Momelotinib, N-(cyanomethyl)-4-{2-[4-(morpholin-4-yl)anilino]pyrimidin-4-yl}benzamide]
Animal body weight, organ weight, other liver genes such as albumin, ASGR1, HAMP1 [4]: No change was observed | PNPLA3 expression in mouse liver [5]: reduced PNPLA3 significantly | Response of mutant PNPLA3 mRNA levels in HepG2 cells [6]: dose-dependent manner | Effect on PNPLA3 expression in human hepatocytes [7]: substantial decrease; also recorded: dose-dependent response | IC50 [8]: < 100 nM | Effect on COL1A1 expression in stellate cells [1]: did not alter COL1A1 expression | Effect on PNPLA3 mRNA levels in stellate cells [2]: reduced PNPLA3 mRNA levels in stellate cells in a dose-dependent manner

S=C(NCc1ccc2c(c1)OCO2)N1CCN(c2ncnc3c2oc2ccccc23)CC1 [Amuvatinib]
PNPLA3 expression, Fold change (Log 2) vs untreated [9]: −0.52 Log 2 | IC50 [10]: 40 nM | IC50 [11]: 10 nM | IC50 [12]: 81 nM

Activin
Upregulation of PNPLA3 in the RNA-seq study [9]: best upregulators | Upregulation of PNPLA5 in the RNA-seq study [13]: best upregulators

COc1nc(N)nc2c1ncn2[C@@H]1O[C@H](COP(=O)(N[C@@H](C)C(=O)OCC(C)(C)C)Oc2cccc3ccccc23)[C@@H](O)[C@@]1(C)O (stereo partly shown) [BMS-986094]
PNPLA3 expression, Fold change (Log 2) vs untreated [9]: −0.69 Log 2

NS(=O)(=O)C#Cc1ccccc1 [Pifithrin-μ, 2-Phenylethynesulfonamide]
PNPLA3 expression, Fold change (Log 2) vs untreated [9]: −0.68 Log 2

CNC(=O)Nc1ccc(-c2nc(N3CC4CCC(C3)O4)c3cnn(C4CCC5(CC4)OCCO5)c3n2)cc1 [WYE-125132]
PNPLA3 expression, Fold change (Log 2) vs untreated [9]: −0.86 Log 2 | COL1A1 expression in mouse liver [14]: reduced COL1A1 expression | Effect on COL1A1 expression in stellate cells [1]: decreased both PNPLA3 and COL1A1 in HSCs in a dose-dependent manner | Effect on PNPLA3 mRNA levels in stellate cells [2]: decreased both PNPLA3 and COL1A1 in HSCs in a dose-dependent manner

CNS(=O)(=O)C[C@H]1CC[C@H](N(C)c2ncnc3[nH]ccc23)CC1 [Oclacitinib]
Effect on PNPLA3 expression in human hepatocytes [7]: efficient downregulation

CN1C(=O)c2sccc2N(C)c2nc(Nc3ccc(S(N)(=O)=O)cc3)ncc21 [XMU-MP-1]
PNPLA3 expression, Fold change (Log 2) vs untreated [9]: −0.66 Log 2

Cc1cc(Nc2nc(N[C@@H](C)c3ncc(F)cn3)ncc2Cl)[nH]n1 [AZD1480]
Effect on PNPLA3 expression in human hepatocytes [7]: efficient downregulation

C1=C/COCc2cc(ccc2OCCN2CCCC2)Nc2nccc(n2)-c2cccc(c2)COC/1 [Pacritinib]
Effect on PNPLA3 expression in human hepatocytes [7]: substantial decrease

B1: GDF2 (BMP9) (protein, UniProt Q9UK05 320-429, looked up)
Growth/differentiation factor …: SAGAGSHCQKTSLRVNFEDIGWDSWIIAPKEYEAYECKGGCFFPLADDVTPTKHAIVQTLVHLKFPTKVGKACCVPTKLSPISVLYKDDMGVPTLKYHYEGMSVAECGCR
Upregulation of PNPLA3 in the RNA-seq study [9]: best upregulators | Upregulation of PNPLA5 in the RNA-seq study [13]: best upregulators
